Test results reported in patent US20260159512A1, “BCAT2 INHIBITORS” (AGIOS PHARMACEUTICALS, INC., priority 2021, published 2026).
Values joined by “and” are separate entries in the source; they are usually repeats but may differ in a detail not shown here. Identical values can stand only once.

Assays:
Details in all cases: average where tested multiple times
hBCAT1 = molecular target: T1, hBCAT1 (Homo sapiens, UniProt P54687); assay: BCAT1 in vitro enzyme inhibition assay (resazurin/diaphorase-coupled fluorescence); assay type: biochemical
T1 sequence (P54687 1-386): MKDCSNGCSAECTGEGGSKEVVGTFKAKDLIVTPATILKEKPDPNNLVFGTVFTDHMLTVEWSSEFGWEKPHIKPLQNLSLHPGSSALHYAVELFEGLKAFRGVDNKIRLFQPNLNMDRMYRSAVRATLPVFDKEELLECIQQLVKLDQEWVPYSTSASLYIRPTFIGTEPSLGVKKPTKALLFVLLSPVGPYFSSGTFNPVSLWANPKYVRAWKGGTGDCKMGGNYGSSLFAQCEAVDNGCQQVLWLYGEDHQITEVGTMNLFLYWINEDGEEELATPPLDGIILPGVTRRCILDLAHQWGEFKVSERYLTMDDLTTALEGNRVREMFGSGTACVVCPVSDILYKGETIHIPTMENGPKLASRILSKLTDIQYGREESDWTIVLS
In short: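 Human BCAT1 activity read by resazurin/diaphorase-coupled fluorescence. Compounds added from 50× DMSO stocks at 1:50, giving 10-point 3-fold titrations from 100 μM top final concentration. Run in technical duplicate; repeat tests averaged.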

BCAT2 [1] = molecular target: T2, BCAT2 (Homo sapiens, UniProt O15382); assay: BCAT2 in vitro cell inhibition using engineered A549 cells (KMV cell assay, 13C6-KMV by LC-MS/MS); assay type: cell-based; design: The result was an engineered A549 cell line that expressed endogenous BCAT2; endogenous in cells; host or cells: A549 cells with MUT and BCAT1 knocked out by CRISPR/CAS9; key to BCAT2 Cell Inhibition: A: less than or equal to 0.100 μM; B: greater than 0.100 and less than or equal to 0.500 μM; C: greater than 0.500 and less than or equal to 1.000 μM; d: greater than 1.000 μM; E: no fit
T2 sequence (O15382 28-392): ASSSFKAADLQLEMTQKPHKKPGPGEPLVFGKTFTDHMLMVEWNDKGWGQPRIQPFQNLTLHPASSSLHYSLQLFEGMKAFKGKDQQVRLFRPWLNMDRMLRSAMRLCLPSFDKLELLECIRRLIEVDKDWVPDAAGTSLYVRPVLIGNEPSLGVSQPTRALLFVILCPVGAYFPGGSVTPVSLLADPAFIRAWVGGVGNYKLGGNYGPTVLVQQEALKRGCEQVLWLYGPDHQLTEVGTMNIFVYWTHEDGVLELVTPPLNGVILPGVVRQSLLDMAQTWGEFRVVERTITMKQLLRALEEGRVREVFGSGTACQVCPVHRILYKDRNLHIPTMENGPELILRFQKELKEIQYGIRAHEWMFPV

BCAT2 [2] = molecular target: T2, BCAT2; assay: BCAT2 in vitro enzyme inhibition assay (resazurin/diaphorase-coupled fluorescence); assay type: biochemical
In short: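 Coupled fluorescence readout: glutamate formed from L-leucine/α-ketoglutarate transamination drives GDH/NAD/diaphorase reduction of resazurin (Ex 540/Em 590). Human BCAT2 was first exposed 1 h at room temperature to compound, top final 100 μM in 3-fold, 10-point series; substrate reaction ran 1 h before SDS quench, in technical duplicate with DMSO max and enzyme-free min controls.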

SMILES	IC50 (hBCAT1)	IC50 (BCAT2 [1])	IC50 (BCAT2 [2])	BCAT2 Cell Inhibition (BCAT2 [1])
Cc1cnn(-c2cc3c(cn2)nc(-c2ccccn2)n3[C@@H]2CCC[C@H](NC(=O)c3ccc(Br)s3)C2)n1 [Example 39, 5-bromo-N-((1S,3R)-3-(6-(4-methyl-2H-1,2,3-triazol-2-yl)-2-(pyridin-2-yl)-1H-imidazo[4,5-c]pyridin-1-yl)cyclohexyl)thiophene-2-carboxamide]	< 500 nM	≤ 100 nM	≤ 100 nM	
Cn1ccc(-c2nc3cnc(-n4nccn4)cc3n2[C@@H]2CCC[C@H](NC(=O)c3ncc(C(F)F)s3)C2)n1 [Example 41, 5-(difluoromethyl)-N-((1S,3R)-3-(2-(1-methyl-1H-pyrazol-3-yl)-6-(2H-1,2,3-triazol-2-yl)-1H-imidazo[4,5-c]pyridin-1-yl)cyclohexyl)thiazole-2-carboxamide]	> 5000 nM	> 1000 nM	100 to 500 nM	
Cn1nccc1-c1nc2cnc(-n3nccn3)cc2n1[C@@H]1CCC[C@H](NC(=O)c2ncc(C(F)F)s2)C1 [Example 43, 5-(difluoromethyl)-N-((1S,3R)-3-(2-(1-methyl-1H-pyrazol-5-yl)-6-(2H-1,2,3-triazol-2-yl)-1H-imidazo[4,5-c]pyridin-1-yl)cyclohexyl)thiazole-2-carboxamide]	> 5000 nM	500 to 1000 nM and 100 to 500 nM	≤ 100 nM	
Cn1nccc1-c1nc2cnc(-n3ccnn3)cc2n1[C@@H]1CCC[C@H](NC(=O)c2ncc(C(F)F)s2)C1 [Example 44, 5-(difluoromethyl)-N-((1S,3R)-3-(2-(1-methyl-1H-pyrazol-5-yl)-6-(1H-1,2,3-triazol-1-yl)-1H-imidazo[4,5-c]pyridin-1-yl)cyclohexyl)thiazole-2-carboxamide]	> 5000 nM		> 1000 nM	E
Cn1cc(-c2nc3cnc(-n4nccn4)cc3n2[C@@H]2CCC[C@H](NC(=O)c3ncc(C(F)F)s3)C2)cn1 [Example 45, 5-(difluoromethyl)-N-((1S,3R)-3-(2-(1-methyl-1H-pyrazol-4-yl)-6-(2H-1,2,3-triazol-2-yl)-1H-imidazo[4,5-c]pyridin-1-yl)cyclohexyl)thiazole-2-carboxamide]	> 5000 nM		> 1000 nM	E
Cn1cc(-c2nc3cnc(-n4ccnn4)cc3n2[C@@H]2CCC[C@H](NC(=O)c3ncc(C(F)F)s3)C2)cn1 [Example 46, 5-(difluoromethyl)-N-((1S,3R)-3-(2-(1-methyl-1H-pyrazol-4-yl)-6-(1H-1,2,3-triazol-1-yl)-1H-imidazo[4,5-c]pyridin-1-yl)cyclohexyl)thiazole-2-carboxamide]	> 5000 nM		> 1000 nM	E
Cc1noc(C)c1-c1nc2cnc(-n3nccn3)cc2n1[C@@H]1CCC[C@H](NC(=O)c2ncc(C(F)F)s2)C1 [Example 47, 5-(difluoromethyl)-N-((1S,3R)-3-(2-(3,5-dimethylisoxazol-4-yl)-6-(2H-1,2,3-triazol-2-yl)-1H-imidazo[4,5-c]pyridin-1-yl)cyclohexyl)thiazole-2-carboxamide]	> 5000 nM		500 to 1000 nM	E
Cc1noc(C)c1-c1nc2cnc(-n3ccnn3)cc2n1[C@@H]1CCC[C@H](NC(=O)c2ncc(C(F)F)s2)C1 [Example 48, 5-(difluoromethyl)-N-((1S,3R)-3-(2-(3,5-dimethylisoxazol-4-yl)-6-(1H-1,2,3-triazol-1-yl)-1H-imidazo[4,5-c]pyridin-1-yl)cyclohexyl)thiazole-2-carboxamide]	> 5000 nM		> 1000 nM	E
O=C(N[C@H]1CCC[C@@H](n2c(-c3ncccc3F)nc3cnc(N4CCCC4=O)cc32)C1)c1ncc(C(F)F)s1 [Example 49, 5-(difluoromethyl)-N-((1S,3R)-3-(2-(3-fluoropyridin-2-yl)-6-(2-oxopyrrolidin-1-yl)-1H-imidazo[4,5-c]pyridin-1-yl)cyclohexyl)thiazole-2-carboxamide]	> 5000 nM		100 to 500 nM	E
O=C(N[C@H]1CCC[C@@H](n2c(-c3ccccn3)nc3cnc(-c4nn[nH]n4)cc32)C1)c1ncc(C(F)F)s1 [Example 50, 5-(difluoromethyl)-N-((1S,3R)-3-(2-(pyridin-2-yl)-6-(2H-tetrazol-5-yl)-1H-imidazo[4,5-c]pyridin-1-yl)cyclohexyl)thiazole-2-carboxamide]	< 500 nM		≤ 100 nM	E
Cc1nc2cnc(-n3ccnn3)cc2n1[C@@H]1CCC[C@H](NC(=O)c2ccc(Br)s2)C1 [Example 52, 5-bromo-N-((1S,3R)-3-(2-methyl-6-(1H-1,2,3-triazol-1-yl)-1H-imidazo[4,5-c]pyridin-1-yl)cyclohexyl)thiophene-2-carboxamide]	> 5000 nM		> 1000 nM	E
O=C(N[C@H]1CCC[C@@H](n2c(-c3ccccn3)nc3cnc(-c4nc[nH]n4)cc32)C1)c1ncc(C(F)F)s1 [Example 53, 5-(difluoromethyl)-N-((1S,3R)-3-(2-(pyridin-2-yl)-6-(1H-1,2,4-triazol-3-yl)-1H-imidazo[4,5-c]pyridin-1-yl)cyclohexyl)thiazole-2-carboxamide]	< 500 nM	≤ 100 nM	≤ 100 nM	
O=C(N[C@H]1CCC[C@@H](n2c(-c3ncccc3F)nc3cnc(-c4cc[nH]n4)cc32)C1)c1ncc(C(F)F)s1 [Example 55, 5-(difluoromethyl)-N-((1S,3R)-3-(2-(3-fluoropyridin-2-yl)-6-(1H-pyrazol-3-yl)-1H-imidazo[4,5-c]pyridin-1-yl)cyclohexyl)thiazole-2-carboxamide]	< 500 nM	≤ 100 nM	≤ 100 nM	
O=C(N[C@H]1CCC[C@@H](n2c(-n3cccn3)nc3cnc(-n4nccn4)cc32)C1)c1ncc(C(F)F)s1 [Example 56, N-((1S,3R)-3-(2-(1H-pyrazol-1-yl)-6-(2H-1,2,3-triazol-2-yl)-1H-imidazo[4,5-c]pyridin-1-yl)cyclohexyl)-5-(difluoromethyl)thiazole-2-carboxamide]	1000 to 5000 nM	100 to 500 nM	≤ 100 nM	
O=C(N[C@H]1CCC[C@@H](n2c(-c3ncccc3F)nc3cnc(-n4nccn4)nc32)C1)c1ncc(C(F)F)s1 [Example 58, 5-(difluoromethyl)-N-((1S,3R)-3-(8-(3-fluoropyridin-2-yl)-2-(2H-1,2,3-triazol-2-yl)-9H-purin-9-yl)cyclohexyl)thiazole-2-carboxamide]	1000 to 5000 nM	100 to 500 nM	≤ 100 nM	
O=C(N[C@H]1CCC[C@@H](n2c(-c3ncccc3F)nc3cnc(-n4ccnn4)nc32)C1)c1ncc(C(F)F)s1 [Example 59, 5-(difluoromethyl)-N-((1S,3R)-3-(8-(3-fluoropyridin-2-yl)-2-(1H-1,2,3-triazol-1-yl)-9H-purin-9-yl)cyclohexyl)thiazole-2-carboxamide]	> 5000 nM	> 1000 nM	100 to 500 nM	
Cc1cccnc1-c1nc2cnc(-n3nccn3)cc2n1[C@@H]1CCC[C@H](NC(=O)c2ncc(C(F)F)s2)C1 [Example 60, 5-(difluoromethyl)-N-((1S,3R)-3-(2-(3-methylpyridin-2-yl)-6-(2H-1,2,3-triazol-2-yl)-1H-imidazo[4,5-c]pyridin-1-yl)cyclohexyl)thiazole-2-carboxamide]	500 to 1000 nM	100 to 500 nM	≤ 100 nM	
C#Cc1cnc(C(=O)N[C@H]2CCC[C@@H](n3c(-c4ncccc4C)nc4cnc(-n5nccn5)cc43)C2)s1 [Example 61, 5-ethynyl-N-((1S,3R)-3-(2-(3-methylpyridin-2-yl)-6-(2H-1,2,3-triazol-2-yl)-1H-imidazo[4,5-c]pyridin-1-yl)cyclohexyl)thiazole-2-carboxamide]	< 500 nM	≤ 100 nM	≤ 100 nM	
